According to publication PMC3365763 (The Journal of Biological Chemistry, 2012):
Where a chain is given by its changes, count along the chain named.

Legend:
Assay type in all cases: biochemical
[1] = target: T1, TG2 (transglutaminase-2, transglutaminase type 2) (Homo sapiens, UniProt P21980)
T1 sequence (P21980 1-687): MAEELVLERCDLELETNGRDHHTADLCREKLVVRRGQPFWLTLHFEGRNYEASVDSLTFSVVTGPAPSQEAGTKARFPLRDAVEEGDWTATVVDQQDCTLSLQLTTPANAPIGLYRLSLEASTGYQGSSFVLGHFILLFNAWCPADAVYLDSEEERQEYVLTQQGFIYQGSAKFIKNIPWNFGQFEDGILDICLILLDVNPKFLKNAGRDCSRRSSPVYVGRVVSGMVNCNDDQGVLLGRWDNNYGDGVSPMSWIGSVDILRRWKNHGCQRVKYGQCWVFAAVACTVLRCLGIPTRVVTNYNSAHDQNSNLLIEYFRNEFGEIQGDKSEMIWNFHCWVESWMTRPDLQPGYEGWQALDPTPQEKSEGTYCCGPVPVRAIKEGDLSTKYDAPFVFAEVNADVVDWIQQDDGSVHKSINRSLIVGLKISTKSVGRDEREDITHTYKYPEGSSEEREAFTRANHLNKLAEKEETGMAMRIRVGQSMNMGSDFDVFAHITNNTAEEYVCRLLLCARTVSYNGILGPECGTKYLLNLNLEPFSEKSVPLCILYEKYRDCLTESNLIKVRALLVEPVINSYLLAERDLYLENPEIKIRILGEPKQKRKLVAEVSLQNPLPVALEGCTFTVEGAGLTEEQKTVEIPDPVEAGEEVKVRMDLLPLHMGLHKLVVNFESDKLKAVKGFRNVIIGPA

[2] = target: T2, TG2 (transglutaminase-2, transglutaminase type 2) (Homo sapiens, UniProt P21980, K202S/K205S)
T2 sequence (P21980 1-687 K202S/K205S): T1 sequence (P21980 1-687) with K202S, K205S

[3] = target: T3, TG2 (transglutaminase-2, transglutaminase type 2) (Homo sapiens, UniProt P21980, R262S)
T3 sequence (P21980 1-687 R262S): T1 sequence (P21980 1-687) with R262S

[4] = target: T4, TG2 (transglutaminase-2, transglutaminase type 2) (Homo sapiens, UniProt P21980, R19S)
T4 sequence (P21980 1-687 R19S): T1 sequence (P21980 1-687) with R19S

IC50 [1]: 142 ± 24 µM
IC50 [2]: 145 ± 23 µM
IC50 [3]: 23 ± 5 µM
IC50 [4]: 254 ± 8 µM
SMILES: Nc1nc2c(ncn2[C@@H]2O[C@H](COP(=O)(O)OP(=O)(O)OP(=O)(O)O)[C@@H](O)[C@H]2O)c(=O)[nH]1 [GTP]
